Laboratory results taken from patent US10800811B2, “Pharmacologically active peptide compound, process for the preparation and use thereof” (Dipartimento di Scienze Biomediche e Biotecnologiche, priority 2016, dated 2020).
Where a name gives a salt, the structure may show the parent alone. No end group written: not given here.

Assays:
ALS patients = conditions: background statement, cited from earlier work
ALS model mice = conditions: background statement; cited from earlier work
NSC34-SOD1-G93A cell = assay type: cell-based, mice
Experimental: The action of the said NHK1 peptide upon the complex VDAC1/SOD1-G93A, i.e. the complex formed by the interaction between protein VDAC1 and the mutant enzyme SOD1 (exactly the mutant G93A, where the glycine 93 was replaced by alanine) was evaluated by in vitro and in cellulo experiments, i.e. in the NSC34 cell line. NSC34 is a hybrid cell line obtained by fusing mice motor neurons with neuroblastoma cells. The NSC34 cell line is widely recognized as cell model of motor neurons and, following its transfection with mutated SOD1, it is considered a reference model of ALS [Cashman N R et al. Neuroblastoma×spinal cord (NSC) hybrid cell lines resemble developing motor neurons. Dev. Dyn. […]
The MTT assay is a colorimetric assay aimed to quantify the activity of dehydrogenase enzymes reducing 3-(4,5-dimethyltiazol-2-yl)-2,5-diphenyltetrazolium, yellow, to purple-blue formazan [Mosmann T., Rapid colorimetric assay for cellular growth and survival: application to proliferation and cytotoxicity assays. […]
Cells were seeded on 24-wells plates at a density of 80,000 cells/well, incubated for 24 hours and then transiently transfected with plasmid pEGFP-N1 expressing SOD1WT or SOD1-G93A or a mock. […] The MTT assay was read after 24 hours incubation. […]
The same vitality assay was repeated in the presence of the NHK1 peptide. […] The MTT assay was read after 24 hours incubation. […]

Molecule	Efficacy in ALS (ALS patients)	other results
CCCN[C@@H]1CCc2nc(N)sc2C1 [Dexpramipexole]	lacks any efficacy in ALS patients	
O=S(=O)(c1cccc2cnccc12)N1CCCNCC1 [Fasudil hydrochloride]	inefficacy in ALS	
CCCCCCCCc1ccc(CCC(N)(CO)CO)cc1 [Fingolimid]	does not show any activity in ALS	
O=C([O-])[O-].[Li+].[Li+] [Lithium carbonate]	no influence on disease progression and survival	
Cc1ccc(NC(=O)c2ccc(CN3CCN(C)CC3)cc2)cc1Nc1nc(-c2cccnc2)cs1 [Masitinib]	inefficacy in ALS	
Nc1nc2ccc(OC(F)(F)F)cc2s1 [Riluzole]		Extension of life expectation (ALS patients; ALS, statistical analysis): about three months
C#Cc1cnc2nc(O)n(C(CC)CC)c2n1 [Tirasemvit]		Improvement of skeletal muscle strength (ALS model mice): did not confirm such ability
IAAQLLAYYFT [NHK1, Isoleucine-Alanine-Alanine-Glutamine-Leucine-Leucine-Alanine-Tyrosine-Tyrosine-Phenylalanine-Threonine]		Toxicity for the cell (NSC34-SOD1-G93A cell): not toxic at all
